Data: article PMC10531168, “Development of Stable Amino-Pyrimidine–Curcumin Analogs: Synthesis, Equilibria in Solution, and Potential Anti-Proliferative Activity” (International Journal of Molecular Sciences, 2023)
Where two headings read alike, the source gives them in different places.

Columns and labels:
PC3 cells [1] = experiment: Cell viability assay (Presto Blue), 48 h; format: cell-based, human; conditions: PC3, 48 h treatment, mean of three independent experiments, n.a. = not active at tested concentrations (≤100 µM)
Procedure: (§1) To determine the anti-proliferative activity of the compounds on cancer cells, we performed dose–response treatments for 48 h on androgen-sensitive and androgen-insensitive PCa cells (LNCaP and PC3, respectively), as well as CRC cell lines (HCT116 and HT29).
(§2) The human colon cell lines, HT29 (ATCC Cat# HTB-38) and HCT116 (ATCC Cat# CCL-247), were grown in DMEM High-Glucose Medium (Biowest, Nuaillé, France), while the human prostate cell lines, PC3 (ATCC Cat# CRL-1435) and LNCaP (ATCC Cat# CRL-1740), were grown in Ham’s F12 (Biowest, Nuaillé, France) and RPMI 1640 (Biowest, Nuaillé, France), respectively. All media were supplemented with 2 mM glutamine, 100 IU/mL penicillin, 100 μg/mL streptomycin, and 10% fetal bovine serum (FBS, Gibco, Fisher Scientific Italia, Segrate (MI), Italia)). The cells were grown at 37 °C in a humified 5% CO2 atmosphere.
(§3) HCT116, HT29, PC3, or LNCaP cells were seeded into a 96-well plate at a density of 5000 cells/well. Cells were treated with eight different concentrations of pyrimidine derivates and curcumin for 48 h, at concentrations starting at 30 μM with 2-fold serial dilutions for curcumin and starting at 100 μM with 3-fold serial dilutions for pyrimidine derivates. Cell viability was measured using Presto Blue cell viability reagent (#A13261, Thermo Fisher Scientific, Waltham, MA, USA), according to the manufacturer’s protocol. The concentration at which cellular growth is inhibited by 50% (GI50) was determined.

LNCaP cells [2] = experiment: Cell cycle analysis (propidium iodide cytofluorimetry); format: cell-based, human; conditions: 48 h at GI50 dose; for % cells SubG1 (apoptotic cells): DMSO control 0.9; for % cells S: DMSO control 12.5; for % cells G2/M: DMSO control 18.4; for % cells G0/G1: DMSO control 65.1
Procedure: (§4) To further investigate the effects of PY1 and PY3 on cell growth, we analyzed the cell cycle progression of LNCaP cells treated at GI50 doses for 48 h (Figure 6 and Figure S4). […] Compared to curcumin, PY1 induced a similar but enhanced effect on the cell cycle, with apoptosis and S-phase being 9.6% and 6.4%, respectively. […] This effect was similarly observed in PC3 and HCT116 cells, with G2/M cells increasing from 14.6% to 62% in PC3 and from 17% to 33% in HCT116 cells (Figure S4).
(§5) Cells were seeded into a 24-well plate at a density of 35,000 cells/well and harvested after 48 h of treatment at GI50 concentrations. Cell cycle analysis of cells stained with propidium iodide solution (propidium iodide 25 µg/mL, Na-Citrate 3.4 mM, NaCl 9.65 mM, NP-40 0.03%) was performed using an Attune Next cytofluorimeter (Thermo Fisher Scientific, Waltham, MA, USA). DMSO was used as the control. Statistical analysis was performed with GraphPad PRISM 6 software (GraphPad Prism), using two-way ANOVA as specified in the figure legends. Graph represents means ± standard errors of the mean (SEM), n = 3. Data were considered to be statistically significant if p < 0.05 (*), p < 0.01 (**), p < 0.001(***), and p < 0.0001 (****).

[3] = set-up: method as in doi:10.1016/S0020-1693(01)00687-9; conditions: cited from earlier work
HCT116 cells [4] = experiment: Cell viability assay (Presto Blue), 48 h; format: cell-based; conditions: Homo sapiens, HCT-116; HCT116, 48 h treatment, mean of three independent experiments; n.a. = not active at tested concentrations (≤100 µM)
Procedure: as §1, §2, §3

HT29 cells [5] = experiment: Cell viability assay (Presto Blue), 48 h; format: cell-based; conditions: Homo sapiens, HT-29; HT29, 48 h treatment, mean of three independent experiments; n.a. = not active at tested concentrations (≤100 µM)
Procedure: as §1, §2, §3

LNCaP cells [6] = experiment: Cell viability assay (Presto Blue), 48 h; format: cell-based, human; conditions: 48 h treatment, mean of three independent experiments, n.a. = not active at tested concentrations (≤100 µM)
Procedure: as §1, §2, §3

HT29 cells [7] = tested on: HT29 cells; set-up: method as in PMID 27614381; conditions: read-out: GI50 (printed IG50), HT29 cell proliferation; cited from earlier work
[8] = UV-Vis pH-metric spectrophotometric titration, protonation constants (HypSpec); format: physicochemical; conditions: 298 K; for pKa: aqueous solution with <2% v/v methanol
Description: Pyrimidine derivatives can be considered weak bases, and the pyrimidine nitrogens are protonated in extremely acid conditions (pH < 1), while the NH2 group has a pKa around 5 depending on the electronic effects of the substituents on the aromatic rings. As a consequence, the amino-pyrimidine moiety is in the neutral form at physiological pH (7.4). Among the synthesized compounds, MPY1, MPY3, and PY1 are characterized by additional acid/base moieties, particularly a phenolic group in the meta position for MPY1 and PY1 and an additional primary aliphatic amine for MPY3. To estimate the protonation constants, UV-visible spectroscopy was preferred over potentiometry since the lower concentration range that is required allows it to work in an aqueous medium with a negligible percentage of methanol (<2% v/v). Figure 3 reports the UV-Vis pH-metric titration of MPY1 in the pH range of 2–11. In extremely acid conditions (pH 2, red spectrum), the amine group on the pyrimidine ring is fully protonated, and the molecule is positively charged (H2L^+). The maximum absorbance is observed at 400 nm, with a shoulder at 500 nm. […] Finally, in basic conditions (pH 11, blue spectrum) the phenolic group is deprotonated, and a negatively charged species is observed (L^−) with λmax at 406 nm. […] By plotting the absorbance value vs. pH at λmax, a titration curve is observed ([…]), with two equivalent points around pH = 5 and pH = 9. […] PY1 (Figure S3) is fully protonated below pH 5 (H3L+) and negatively charged in basic conditions (HL^−, L^2−). To estimate protonation constants and pKa values, spectrophotometric data were elaborated using Hypspec, and the logβ values, together with pKa, are reported in Table 1.
To perform spectrophotometric titrations, ligands (denoted generally as L in the following) were dissolved in methanol to give a mother solution (2.50 mM) that was then diluted in water to a final volume of 25 mL in order to obtain a 25/50 μM concentration, depending on the compound, in order to have a maximum absorbance in a range of 0.4–1. The pH (initial value ~5) was varied by adding small amounts (1 μL) of concentrated NaOH/HCl (4 M) in order to investigate the spectral behavior of the 2–11 pH range. In these conditions, the volume variations were negligible. A constant ionic strength (NaNO3, 0.1 M) was maintained in all the experiments. The overall protonation constants (βqr) are defined by the following equations:qL^l− + rH^+ ⇌ [LqHr]^(r − ql)(1) (2) βqr=LqHr^r − ql/L^−l]^q · H^+]^r where L is the ligand in the completely dissociated form and H is a proton. βqr values were refined from spectrophotometric data using least-squares calculations in HypSpec. The results of least-squares calculations include the standard deviations and correlation coefficients of the refined parameters. The quantities were obtained by performing error propagation calculations from the experimental errors on the parameters. The stability constant refinement furnishes least-squares estimates of the standard deviation, σ, of the stability constant, β. The error on logβ is calculated as follows: σ(logβ) = [log(β + σ) − log(β − σ)]/2, as previously reported.

HCT116 cells [9] = experiment: Cell cycle analysis (propidium iodide cytofluorimetry); format: cell-based, human; conditions: HCT116, 48 h at GI50 dose; control 17%
Procedure: as §4, §5

PC3 cells [10] = experiment: as above; format: cell-based, human; conditions: PC3, 48 h at GI50 dose; control 14.6%
Procedure: as §4, §5

[11] = aqueous solution, spectrophotometric data, HypSpec
[12] = logβ11 (MPY1, MPY3) or logβ12 − logβ11 (PY1), read-out: pKa2
[13] = logβ12 − logβ11 (MPY1, MPY3) or logβ13 − logβ12 (PY1), read-out: pKa1

| Compound | % cells SubG1 (apoptotic cells) (LNCaP cells [2]) | % cells S (LNCaP cells [2]) | % cells G2/M (LNCaP cells [2]) | % cells G0/G1 (LNCaP cells [2]) | GI50 (HCT116 cells [4]) | GI50 (HT29 cells [5]) | GI50 (LNCaP cells [6]; Homo sapiens, 48 h) | GI50 (PC3 cells [1]; Homo sapiens, PC-3, 48 h) | logβ11 (overall protonation constant) [8, 11] | logβ12 (overall protonation constant) [8, 11] | pKa [8, 12] | pKa [8, 13] | other results |
| --- | --- | --- | --- | --- | --- | --- | --- | --- | --- | --- | --- | --- | --- |
| 4,6-bis[(E)-2-(3-methoxyphenyl)ethenyl]pyrimidin-2-amine [PY4] | – | – | – | – | – | – | – | – | – | – | – | – | GI50 (PC3 cells [1]): 82.8 ± 23.4 µM |
| COc1cc(/C=C/C(=O)CC(=O)/C=C/c2ccc(O)c(OC)c2)ccc1O [Curcumin, (1E,6E)-1,7-bis (4-hydroxy-3-methoxyphenyl)-1,6-heptadiene-3,5-dione] | 7.2% | 9.7% | 22.3% | 58.4% | 13.6 ± 2.9 µM | > 30 µM | > 30 µM | 23.9 ± 0.4 µM | – | – | – | – | pKa of keto-enol moiety [3]: 8.56 |
| COc1ccc(/C=C/C(=O)CC(=O)/C=C/c2ccc(OC)c(OC)c2)cc1OC [DiMC, bis-dimethoxycurcumin] | – | – | – | – | – | – | – | – | – | – | – | – | GI50 (HT29 cells [7]): 43.4 µM |
| COc1cc(/C=C/c2cc(C)nc(N)n2)ccc1O [MPY1, 4-[(E)-2-(2-amino-6-methylpyrimidin-4-yl)ethenyl]-2-methoxyphenol] | – | – | – | – | – | – | 73.9 ± 9.9 µM | – | 8.99 ± 0.01 | 13.72 ± 0.01 | 8.99 ± 0.01 | 4.73 ± 0.02 | – |
| COc1ccc(/C=C/c2cc(C)nc(N)n2)cc1OC [MPY2, 4-[(E)-2-(3,4-dimethoxyphenyl)ethenyl]-6-methylpyrimidin-2-amine] | – | – | – | – | – | – | 73.1 ± 14 µM | 84.4 ± 0.1 µM | – | – | – | – | – |
| COc1cc(/C=C/c2cc(C)nc(N)n2)ccc1OCCCN [MPY3, 4-{(E)-2-[4-(3-aminopropoxy)-3-methoxyphenyl]ethenyl}-6-methylpyrimidin-2-amine] | – | – | – | – | 98 ± 13.6 µM | – | 68.8 ± 21.7 µM | – | 8.62 ± 0.01 | 13.04 ± 0.01 | 8.62 ± 0.01 | 4.43 ± 0.02 | – |
| COc1cc(/C=C/c2cc(/C=C/c3ccc(O)c(OC)c3)nc(N)n2)ccc1O [PY1, 4,4′-{(2-aminopyrimidine-4,6-diyl)di[(E)ethene-2,1-diyl]}bis(2-methoxyphenol)] | 9.6% | 6.4% | 24.8% | 57.8% | 19.9 ± 3.3 µM | 45.3 ± 4.1 µM | ~24 µM | ~24 µM | 10.27 ± 0.03 | 19.30 ± 0.02 | 9.04 ± 0.05 | 4.86 ± 0.07 | logβ13 (overall protonation constant) [8, 11]: 24.17 ± 0.05; pKa ([8]; pKa3 = logβ11, read-out: pKa3): 10.27 ± 0.03; GI50 (LNCaP cells [6]): 24.1 ± 8.5 µM; GI50 (PC3 cells [1]): 23.5 ± 9.7 µM |
| COc1ccc(/C=C/c2cc(/C=C/c3ccc(OC)c(OC)c3)nc(N)n2)cc1OC [PY3, 4,6-bis[(E)-2-(3,4-dimethoxyphenyl)ethenyl]pyrimidin-2-amine] | 4.7% | 4.7% | 54.6% | 32.8% | 37.9 ± 11.6 µM | 19.7 ± 1.1 µM | 12.1 ± 2 µM | 14.7 ± 0.9 µM | – | – | – | – | % cells G2/M (HCT116 cells [9]): 33%; % cells G2/M (PC3 cells [10]): 62% |
